From patent US10874636B2, “Application of substituted cinnamamide derivatives in preparation of anti-anxiety medication” (TASLY PHARMACEUTICAL GROUP CO., LTD., priority 2016, dated 2020)

What was measured:
[1] = system: rats; assay: Drinking conflict experiment for rats (Vogel test); type: in vivo, SD male rats; conditions: for Effect on water licks of the rats during the punished session compared with the solvent control groups: 5 mg/kg intragastric for 10 days, in words; for Water licks of rats during punished session: 5 mg/kg intragastric once a day for 10 days, test half an hour after final administration, 3 minutes, 0.3 mA, x±S
Experimental: 230 SD male rats with the weight of 180-220 g were taken and fed adaptively for 1 week. Then, these rats were divided, at random, into 19 groups based on their weights, 12-13 rats in each group. Intragastric administration was conducted one a day according to the drugs and dosages listed in Table 2, which lasted for 10 consecutive days. Water deprivation 48 hours before the final administration, and non-punitive drinking training was conducted on the 9th day; on the 10th day, half an hour after the final intragastric administration of all the groups, the punitive experimental test was conducted.
On the first stage (non-punitive drinking training): after water deprivation for 24 hours, the rats were placed in operation boxes individually to explore thoroughly, until they found bottle mouths and began to lick water, water licks of the rats within 3 minutes under the conditions of no electric shock (the condition was set as follows: the strength of electric shock was 0 mA) were automatically recorded by counters, and rats whose water licks were less than 300 were eliminated. On the second stage (punitive experiment): the above rats which were not eliminated were placed in the operation boxes after continuing the water deprivation for 24 hours (48 hours in total). The rats could find the bottle mouths rapidly and begin to lick water, the instruments began to time automatically and imparted one electric shock (the ratio of licks to the number of electric shocks was 20:1) while the water licks reached to 20, wherein the strength of electric shocks was 0.3 mA, lasting for 2 seconds, but these rats may control the length of the time for which they were electrically shocked by keeping away from the bottle mouths. Water licks of the rats during the punished session (3 minutes) were recorded.
Observational indexes of the Vogel drinking conflict model: water licks of the rats during the punished session.

[2] = system: mice; assay: Elevated plus-maze test for mice; type: in vivo, ICR male mice; conditions: 10 mg/kg intragastric for 1 week; in words
Experimental: 247 ICR male mice aged 6-8 weeks with the weight of 18-22 g were taken and fed adaptively for 1 week. Then, these mice were evenly divided, at random, into 19 groups based on their weights. Intragastric administration was conducted once a day according to the drugs and dosages listed in Table 1, which lasted for 7 consecutive days. 20 minutes after administration on the 7th day, the elevated plus-maze test was conducted.
The elevated plus-maze (EPM) for mice were composed of two opposite open arms (50 cm×10 cm) and two opposite enclosed arms (50 cm×10 cm×40 cm), wherein upper portions of the enclosed arms were not capped, an open portion of 10 cm×10 cm was located in the middle of the maze, and the maze was 50 cm away from the ground. The test was conducted in a quite environment at a time period ranging from 13:00 to 18:00.
The open-arms entries (OE) and enclosed-arms entries, as well as the residence time in two arms, of the mice, within 5 minutes, were recorded respectively, and the percentage of the open-arms entries (OE %) and that of the open-arms time (OT %) for each group of mice with respect to the total entries into the two arms and the total residence time in the two arms therein were calculated respectively.
Analysis was conducted using SPSS 11.5 software, and data were represented by x±S, the significance of differences between groups was compared using the analysis of variance, differences were significant while P was less than 0.05.

Compound	Effect on water licks of the rats during the punished session compared with the solvent control groups [1]	Water licks of rats during punished session [1]	Effect on open-arms entries of the mice compared with the solvent control groups [2]	Effect on open-arms time of the mice compared with the solvent control groups [2]
CC(C)CNC(=O)/C=C/c1cc(O)c(O)c(C(F)(F)F)c1 [III-7, 3′,4′-dihydroxyl-5′-trifluoromethyl-cinnamic acid isobutylamide]	increase water licks of the rats during the punished session	378.33 ± 54.97	increase the open-arms entries of the mice	prolong their open-arms time
CN1CCN(C(=O)/C=C/CCc2cc3c(c(C(F)(F)F)c2)OCO3)CC1.Cl [II-13, (E)-N-(4-methylpiperazinyl)-5-(5′-trifluoromethyl-3′,4′-methylenedioxyphenyl)-1-pentene amide hydrochloride]	increase water licks of the rats during the punished session	393.44 ± 48.99	increase the open-arms entries of the mice	prolong their open-arms time
COc1cc(/C=C/C(=O)NCC(C)C)cc(C(F)(F)F)c1OC [III-2, 3′,4′-dimethoxy-5′-trifluoromethyl-cinnamic acid isobutylamide]	increase water licks of the rats during the punished session	368.00 ± 39.59	increase the open-arms entries of the mice	prolong their open-arms time
CN1CCN(C(=O)/C=C/C=C/CCc2cc3c(c(C(F)(F)F)c2)OCO3)CC1.Cl [II-15, (2E,4E)-N-(4-methylpiperazinyl)-7-(5′-trifluoromethyl-3′,4′-methylenedioxyphenyl)-2,4-heptadiene amide hydrochloride]	increase water licks of the rats during the punished session	412.25 ± 42.90	increase the open-arms entries of the mice	prolong their open-arms time
CC(C)CNC(=O)CCc1cc2c(c(C(F)(F)F)c1)OCO2 [II-11, 3-(5′-trifluoromethyl-3′,4′-methylenedioxyphenyl)-propionic acid isobutylamide]	increase water licks of the rats during the punished session	426.25 ± 37.29	increase the open-arms entries of the mice	prolong their open-arms time
COc1c(O)cc(/C=C/C(=O)NCC(C)C)cc1C(F)(F)F [III-4, 3′-hydroxyl-4′-methoxy-5′-trifluoromethyl-cinnamic acid isobutylamide]	increase water licks of the rats during the punished session	394.22 ± 50.29	increase the open-arms entries of the mice	prolong their open-arms time
O=C(/C=C/c1cc(O)c(O)c(C(F)(F)F)c1)N1CCCCC1 [III-9, 3′,4′-dihydroxyl-5′-trifluoromethyl-cinnamyl piperidine]	increase water licks of the rats during the punished session	363.56 ± 39.70	increase the open-arms entries of the mice	prolong their open-arms time
O=C(/C=C/c1cc2c(c(C(F)(F)F)c1)OCO2)N1CCCCC1 [II-10, 5′-trifluoromethyl-3′,4′-methylenedioxy cinnamic acid piperidinylamide]	increase water licks of the rats during the punished session	459.75 ± 59.23	increase the open-arms entries of the mice	prolong their open-arms time
CC(C)CNC(=O)CCc1cc(O)c(O)c(C(F)(F)F)c1 [III-10, 3-(3′,4′-dihydroxyl-5′-trifluoromethylphenyl)-propionic acid isobutylamide]	increase water licks of the rats during the punished session	369.00 ± 44.83	increase the open-arms entries of the mice	prolong their open-arms time
CC(C)CNC(=O)c1cc2c(c(C(F)(F)F)c1)OCO2 [II-12, 5-trifluoromethyl-3′,4′-methylenedioxy benzoic acid isobutylamide]	increase water licks of the rats during the punished session	402.67 ± 50.35	increase the open-arms entries of the mice	prolong their open-arms time
